Laboratory results published in publication PMC12812009, “Optimization of 4‐Amino‐2‐Pyridone Inhibitors of Proprotein Convertase Subtilisin/Kexin Type 9: Integrating Structure–Activity and Structure–Metabolism Relationships” (Chemmedchem, 2025).
Read-outs that look alike come from different tables or passages of the source.

Tests used:
Format in all cases: cell-based, human
secreted PCSK9 = assay: PCSK9 secretion in culture medium, ELISA on HepG2 supernatants; conditions: for decrease of secreted PCSK9 vs. basal: given as decrease; for IC50: HepG2, Table S2, ELISA, non-cytotoxic concentrations, read-out: IC50 ± SD on PCSK9 secreted by HepG2
Experimental: Next, the levels of secreted PCSK9 were quantified by ELISA assay (Figure 5) only on supernatants collected from cells treated with noncytotoxic concentrations of each compound, as reported in Table 1. Simvastatin (Simva) at 20 and 40 μM and berberine (BBR) at 10 μM were included as controls. As described in the literature, simvastatin induces PCSK9 expression as a compensatory mechanism in response to its cholesterol‐lowering effects, being a pharmacological competitor for HMG‐CoA reductase, the rate‐limiting enzyme of the cholesterol biosynthetic pathway.^[ [29] ^] In contrast, BBR, a natural compound, reduces the expression of PCSK9 levels through transcriptional inhibition, thus increasing the LDLR availability on plasma membrane.^[ [30] ^] As additional and distinct mechanism to the latter, BBR is also able to stabilize the transcript of LDLR, thus increasing its half‐life.^[ [31] ^] As expected, cells stimulated with simvastatin released more PCSK9 into the culture medium compared to unstimulated cells, with a statistically significant concentration‐dependent effect (+73% at 20 μM, p < 0.01; +200% at 40 μM, p < 0.0001), while BBR at 10 μM decreased PCSK9 levels in the medium more than 50% (p < 0.0001 vs. basal) (Figure 5).^[ [32] ^] The amount of PCSK9 secreted into the culture media was measured with an appropriate ELISA kit (R&D System, DY3888 and DY008B2) on the supernatants collected during the MTT assay. Every experimental condition was run in duplicate and the average PCSK9 secretion and standard deviation was calculated. A 4PL regression analysis was used to interpolate unknowns with the standard curve using GraphPad Prism v10.2, according to manufacturers’ instructions. The data were normalized onto the corresponding cell viability, and IC50 was then calculated using GraphPad Prism v10.2.

[1] = MTT cell viability assay in HepG2 cell cultures; conditions: human, HepG2 cells, MTT
Experimental: The approach we set‐up to test the new PCSK9i was based on functional assay, which evaluated at the same time compounds cytotoxicity, and their effect on the secreted PCSK9 on the same cell line. First, cell viability was evaluated in HepG2 cell cultures using the MTT assay (CC50 values are reported in Table 1 and Figure 5 ) after 24 h of incubation in starving conditions (0.4% fetal bovine serum (FBS)). The low FBS concentration, and thus low extracellular lipoproteins, stimulates the sterol responsive element binding protein (SREBP) pathway, inducing the expression of LDLR, PCSK9, HMG‐CoA reductase,^[ [28] ^] thus increasing the uptake of exogenous cholesterol and enhancing the synthesis of endogenous cholesterol. This first step allowed us to calculate the CC50 and identify the noncytotoxic concentrations (viability higher than 90%; Table 1), then tested for PCSK9 inhibitory activity.
Cell viability was assessed using the MTT assay. Cells were seeded in 96‐well plates (2.5 × 10^4 cells/well) in MEM supplemented with 10% v/v FBS and incubated for 24 h. The cells were then treated with the synthesized compounds dissolved in DMSO at increasing concentrations (from 0.5 to 50 µM) in MEM supplemented with 0.4% v/v FBS for 24 h. Simvastatin [20 and 40 µM] and BBR [10 µM] (both from Merck, St. Louis, Missouri, USA) were used as internal controls as PCSK9 inducer and inhibitor, respectively.^[ [21] ^, [34] ^, [35] ^] The cells were then incubated for 2 h with a solution of MTT [1 mg mL^–1] in MEM supplemented with 0.4% v/v FBS, away from light sources. The supernatant was then collected and 200 µL of DMSO was added to each well to solubilize the newly formed formazan. Finally, an aliquot of 100 µL was taken to measure the absorbance at a wavelength of 570 nm using an absorbance microplate reader (Spark Tecan, Switzerland). Every experimental condition was run in duplicate and the average cell viability and standard deviation was calculated. Cell viability was expressed as the percentage of treated cells compared to untreated (basal) cells. CC50 values for each compound were calculated by interpolating the percentage of cell viability through nonlinear regression analysis of the log (inhibition) versus response using GraphPad Prism software version 8.0 (GraphPad Software Inc., La Jolla, CA).

PCSK9 mRNA = PCSK9 mRNA expression in HepG2 cells by RTqPCR; conditions: 24 h incubation, increasing concentrations
Experimental: To further investigate the mechanism of action of these compounds, we evaluated the PCSK9 mRNA levels after 24 h incubation with increasing concentrations of 5c, 6b, and 7.
Total RNA was extracted using the iScript RT‐qPCR Sample Prep reagent (Bio‐Rad), according to the manufacturer's instructions. QuantiNova SYBR Green RT‐PCR Kit (QIAGEN, Hilden, Germany) was used for qPCR, along with specific primers for 18S (FWD 5′‐[…]‐3′, REV 5′‐[…]‐3′) PCSK9 (FWD 5′‐CCTGCGCGTGCTCAACT‐3′, REV 5′‐[…]‐3′). The analyses were performed with the CFX96 Touch Real‐Time PCR Detection System (Bio‐Rad) with cycling conditions of 45 °C for 10 min, 95 °C for 5 min, and a repetition of 40 cycles at 95 °C for 5 s followed by 30 s at 60 °C. The data were expressed as Ct values and used for relative quantification of targets with ΔΔCt calculations. The ΔΔCt values were determined by multiplying the ratio value between the efficiency of specific primers and housekeeping 18S. The efficiency was calculated as ((10(‐1/slope))−1) × 100.

[2] = Homo sapiens, 10 μM, HepG2, 24 h, read-out: secreted PCSK9 change vs. basal
[3] = printed in Figures 5 and 8, HepG2, 24 h, read-out: CC50

| Compound | decrease of secreted PCSK9 vs. basal (secreted PCSK9; 10 μM, HepG2, 24 h) [%] | decrease of secreted PCSK9 vs. basal (secreted PCSK9; 25 μM, HepG2, 24 h) [%] | IC50 (secreted PCSK9; Homo sapiens) [µM] | inhibition at 10 µM (secreted PCSK9; [2]) [%] | CC50 at 24 h [1, 3] [µM] | PCSK9 mRNA expression (in words) (PCSK9 mRNA) | inhibition at 5 µM (secreted PCSK9; Homo sapiens, 5 μM, HepG2, 24 h, read-out: secreted PCSK9 change vs. basal) [%] | CC50 at 24 h ([1]; 24 h incubation, HepG2, 0.4% FBS, 0.5-50.0 μM, read-out: CC50 (CI 95%)) [µM] |
| --- | --- | --- | --- | --- | --- | --- | --- | --- |
| Cc1cc2c(sc(=N)n2Cc2ccc(C(F)(F)F)cc2)c(=O)n1Cc1ccc(C(F)(F)F)cc1 [Compound 7, 2‐Imino‐6‐Methyl‐1,5‐Bis(4‐(Trifluoromethyl)benzyl)‐1,2‐Dihydrothiazolo[5,4‐c]pyridin‐4(5H)‐One] | 74 | 90 | 4.1 ± 0.36 | 74 | > 50 | strongly suppressed the PCSK9 mRNA expression | – | – |
| Cc1cc(NCc2ccc(C(F)(F)F)cc2)c(Br)c(=O)n1Cc1ccc(C(F)(F)F)cc1 [Compound 6b, 3‐Bromo‐6‐Methyl‐1‐(4‐(Trifluoromethyl)Benzyl)‐4‐((4‐(Trifluoromethyl)Benzyl)Amino)pyridin‐2(1H)‐One] | – | – | 2.6 ± 1.61 | 90 | – | strongly suppressed the PCSK9 mRNA expression | 75 | 27 |
| Cc1cc(NCc2ccc(C(F)(F)F)cc2)cc(=O)n1Cc1ccc(C(F)(F)F)cc1 [Compound 5c] | – | – | 1.7 ± 0.67 | – | 32.4 | strongly suppressed the PCSK9 mRNA expression | – | – |
